According to patent US20070026080A1, “Manufacturing process for tigecycline” (Wyeth, priority 2005, published 2007):

Experiment: Strength and degradation profile of tigecycline 20 mg/mL bulk solutions by reversed phase HPLC (effect of temperature, time, pH, dissolved oxygen; Runs A to O)
Assay type: physicochemical
Conditions: 8° C.
Experimental: The contents of the sample vials are dissolved in diluent. The sample solution is diluted, if necessary, and chromatographed on a reversed phase column using gradient elution. Impurities are determined by comparing the impurity peak areas in the sample preparation chromatogram to the average area of tigecycline peaks in the standard preparation chromatograms obtained concomitantly.
Chromatographic Column—Length about 15 cm, inside diameter about 4.6 mm, packed with Inertsil ODS2, 5 μm size particles or equivalent.
Detector—Ultraviolet spectrophotometric detector capable of operating at 248 nm with a sensitivity of about 0.5 absorbance units full scale.
The results of additional studies to investigate the effect of processing parameters such as temperature, time, and dissolved oxygen content on the purity profile of tigecycline solutions using the following materials, methods and procedures are presented in Tables A to O.
The experiments were run in plastic glove bags under normal laboratory light conditions. Plastic glove boxes will be used to control the headspace of the beakers. The batch size was 200 mL. • 1. Prepare the glove bag with a mixture of nitrogen and air to achieve an oxygen level in the solution as per the design. • 2. Place the jacketed beaker on the magnetic stirrer. Connect it to the cooler. Set the cooler to the desired set point. • 3. Add 200 mL of SWFI in to the beaker. Allow equilibrating. Measure the temperature and oxygen content. When it reaches the desired condition, add accurately weighed API and mix until dissolved. If necessary use spatula to aid dissolution. For pH adjustments, use 4 mL of either 0.1N NaOH or 0.1N HCl and 196 mL of WFI for manufacture. • 4. After complete dissolution, Transfer about 5.5 mL of Solution in vials and stopper them. These vials will be stoppered at the appropriate headspace conditions. Place the vials in appropriate temperature conditions. • 5. Sample the vials at 1, 4, 8, 10, 12 and 24 hours. Send the samples for analysis. Freeze the 10, 12 and 24 samples at −20° C. for analysis the following day. • 6. Measure pH and record color of the solution at each time point. Results
The 1-hour samples were taken directly from the beakers. Samples for later time points were collected in stoppered vials processed in the atmosphere of the bag in order to simulate the headspace conditions then placed in water baths or refrigerator to maintain there respective temperature conditions. This was done to maintain safety in the lab. Disposable plastic glove bags require constant flow of a mixture of nitrogen and air to maintain headspace oxygen level that will result in the desired dissolved oxygen (DO) content in the sample. The pH of samples was measured at each sample points.
Strength and degradation profile was analyzed by HPLC as described above. […] Degradation was slightly higher at higher temperature condition.

[1] = Run #M, pH 7.7, Oxygen = 0.1 mg/L, 10 Hrs
[2] = Run #M, pH 7.7, Oxygen = 0.1 mg/L, 12 Hrs
[3] = Run #M, pH 7.7, Oxygen = 0.1 mg/L, 24 Hrs
[4] = Run #N, pH 8.2, Oxygen = 0.1 mg/L, 1 Hrs
[5] = Run #N, pH 8.2, Oxygen = 0.1 mg/L, 1R Hrs
[6] = Run #N, pH 8.2, Oxygen = 0.1 mg/L, 4 Hrs

Structure (SMILES): CN(C)c1cc(NC(=O)CNC(C)(C)C)c(O)c2c1C[C@H]1C[C@H]3[C@H](N(C)C)C(O)=C(C(N)=O)C(=O)[C@@]3(O)C(O)=C1C2=O [Tigecycline]
- RRT 1.12 [1]: BRL (BRL means below reporting limit (meaning less than 0.05% of tigecycline peak))
- RRT 1.45 [1]: 0.07%
- RRT 1.58 [1]: BRL (BRL means below reporting limit (meaning less than 0.05% of tigecycline peak))
- RRT 1.64 Mino [1]: 0.09%
- RRT 1.67 MW = 556 [1]: (<0.05) %
- RRT 1.85 MW = 597 [1]: 0.08%
- Strength [1]: 19.240 mg/mL
- Total [1]: 0.71%
- RRT 0.12 MW = 633 [2]: BRL (BRL means below reporting limit (meaning less than 0.05% of tigecycline peak))
- RRT 0.23 MW = 572 [2]: BRL (BRL means below reporting limit (meaning less than 0.05% of tigecycline peak))
- RRT 0.50 MW = 601 [2]: BRL (BRL means below reporting limit (meaning less than 0.05% of tigecycline peak))
- RRT 0.55 MW = 583 [2]: 0.07%
- RRT 0.58 [2]: BRL (BRL means below reporting limit (meaning less than 0.05% of tigecycline peak))
- RRT 0.64 9-Amino [2]: BRL (BRL means below reporting limit (meaning less than 0.05% of tigecycline peak))
- RRT 0.74 Epimer [2]: 0.27%
- RRT 0.76 [2]: 0.05%
- RRT 0.78 MW = 557 [2]: BRL (BRL means below reporting limit (meaning less than 0.05% of tigecycline peak))
- RRT 1.12 [2]: BRL (BRL means below reporting limit (meaning less than 0.05% of tigecycline peak))
- RRT 1.45 [2]: 0.07%
- RRT 1.58 [2]: BRL (BRL means below reporting limit (meaning less than 0.05% of tigecycline peak))
- RRT 1.64 Mino [2]: 0.12%
- RRT 1.67 MW = 556 [2]: 0.07%
- RRT 1.85 MW = 597 [2]: 0.08%
- Strength [2]: 19.240 mg/mL
- Total [2]: 0.73%
- RRT 0.12 MW = 633 [3]: BRL (BRL means below reporting limit (meaning less than 0.05% of tigecycline peak))
- RRT 0.23 MW = 572 [3]: BRL (BRL means below reporting limit (meaning less than 0.05% of tigecycline peak))
- RRT 0.50 MW = 601 [3]: BRL (BRL means below reporting limit (meaning less than 0.05% of tigecycline peak))
- RRT 0.55 MW = 583 [3]: BRL (BRL means below reporting limit (meaning less than 0.05% of tigecycline peak))
- RRT 0.58 [3]: 0.08%
- RRT 0.64 9-Amino [3]: BRL (BRL means below reporting limit (meaning less than 0.05% of tigecycline peak))
- RRT 0.74 Epimer [3]: 0.29%
- RRT 0.76 [3]: BRL (BRL means below reporting limit (meaning less than 0.05% of tigecycline peak))
- RRT 0.78 MW = 557 [3]: BRL (BRL means below reporting limit (meaning less than 0.05% of tigecycline peak))
- RRT 1.12 [3]: BRL (BRL means below reporting limit (meaning less than 0.05% of tigecycline peak))
- RRT 1.45 [3]: 0.09%
- RRT 1.58 [3]: BRL (BRL means below reporting limit (meaning less than 0.05% of tigecycline peak))
- RRT 1.64 Mino [3]: 0.09%
- RRT 1.67 MW = 556 [3]: (<0.05) %
- RRT 1.85 MW = 597 [3]: 0.08%
- Strength [3]: 19.193 mg/mL
- Total [3]: 0.62%
- RRT 1.12 (Run #N, pH 8.2, Oxygen = 0.1 mg/L): BRL (BRL means below reporting limit (meaning less than 0.05% of tigecycline peak))
- RRT 0.12 MW = 633 [4]: BRL (BRL means below reporting limit (meaning less than 0.05% of tigecycline peak))
- RRT 0.23 MW = 572 [4]: BRL (BRL means below reporting limit (meaning less than 0.05% of tigecycline peak))
- RRT 0.50 MW = 601 [4]: BRL (BRL means below reporting limit (meaning less than 0.05% of tigecycline peak))
- RRT 0.55 MW = 583 [4]: BRL (BRL means below reporting limit (meaning less than 0.05% of tigecycline peak))
- RRT 0.58 [4]: 0.07%
- RRT 0.64 9-Amino [4]: BRL (BRL means below reporting limit (meaning less than 0.05% of tigecycline peak))
- RRT 0.74 Epimer [4]: 0.20%
- RRT 0.76 [4]: BRL (BRL means below reporting limit (meaning less than 0.05% of tigecycline peak))
- RRT 0.78 MW = 557 [4]: BRL (BRL means below reporting limit (meaning less than 0.05% of tigecycline peak))
- RRT 1.12 [4]: BRL (BRL means below reporting limit (meaning less than 0.05% of tigecycline peak))
- RRT 1.45 [4]: 0.07%
- RRT 1.58 [4]: BRL (BRL means below reporting limit (meaning less than 0.05% of tigecycline peak))
- RRT 1.64 Mino [4]: (<0.05) %
- RRT 1.67 MW = 556 [4]: BRL (BRL means below reporting limit (meaning less than 0.05% of tigecycline peak))
- RRT 1.85 MW = 597 [4]: 0.11%
- Strength [4]: 19.343 mg/mL
- Total [4]: 0.46%
- RRT 0.12 MW = 633 [5]: BRL (BRL means below reporting limit (meaning less than 0.05% of tigecycline peak))
- RRT 0.23 MW = 572 [5]: BRL (BRL means below reporting limit (meaning less than 0.05% of tigecycline peak))
- RRT 0.50 MW = 601 [5]: BRL (BRL means below reporting limit (meaning less than 0.05% of tigecycline peak))
- RRT 0.55 MW = 583 [5]: 0.06%
- RRT 0.58 [5]: 0.06%
- RRT 0.64 9-Amino [5]: BRL (BRL means below reporting limit (meaning less than 0.05% of tigecycline peak))
- RRT 0.74 Epimer [5]: 0.29%
- RRT 0.76 [5]: 0.05%
- RRT 0.78 MW = 557 [5]: BRL (BRL means below reporting limit (meaning less than 0.05% of tigecycline peak))
- RRT 1.45 [5]: 0.09%
- RRT 1.58 [5]: BRL (BRL means below reporting limit (meaning less than 0.05% of tigecycline peak))
- RRT 1.64 Mino [5]: 0.08%
- RRT 1.67 MW = 556 [5]: BRL (BRL means below reporting limit (meaning less than 0.05% of tigecycline peak))
- RRT 1.85 MW = 597 [5]: 0.09%
- Strength [5]: 19.415 mg/mL
- Total [5]: 0.72%
- RRT 0.12 MW = 633 [6]: BRL (BRL means below reporting limit (meaning less than 0.05% of tigecycline peak))
- RRT 0.23 MW = 572 [6]: BRL (BRL means below reporting limit (meaning less than 0.05% of tigecycline peak))
- RRT 0.50 MW = 601 [6]: BRL (BRL means below reporting limit (meaning less than 0.05% of tigecycline peak))
- RRT 0.55 MW = 583 [6]: BRL (BRL means below reporting limit (meaning less than 0.05% of tigecycline peak))
- RRT 0.58 [6]: 0.07%
- RRT 0.64 9-Amino [6]: BRL (BRL means below reporting limit (meaning less than 0.05% of tigecycline peak))
- RRT 0.74 Epimer [6]: 0.21%
- RRT 0.76 [6]: BRL (BRL means below reporting limit (meaning less than 0.05% of tigecycline peak))
